Source: patent publication US20200022998A1, “MEDICAL USE OF NOTCH4 OR INHIBITORS THEREOF” (BEIJING INSTITUTE OF GENOMICS, CHINESE ACADEMY OF SCIENCES, priority 2016, published 2020)
“Also recorded” adds a separate entry of the source.

Columns and labels:
[1] = test system: normal iPSC BC1; assay: in vitro megakaryocyte lineage differentiation of iPSC BC1 (spin-EB), flow cytometry at Day 14; type: cell-based, human; settings: for decrease of proportion of HSPCs (CD34+CD45+) vs DMSO control / proportion of MKPs (CD34+CD41+) produced, increased fold vs DMSO control (set as 1) / proportion of mature megakaryocytes MKs (CD41+CD42+) produced, increased fold vs DMSO control (set as 1): FIG. 7A; for production of megakaryocyte progenitor cells and/or mature megakaryocytes in vitro: screen in the in vitro differentiation system of stem cells
Method: BC1 cell line was cultured in E8 medium, under the culture condition of 37° C., 5% CO2, and was passaged at (1:5)-(1:10) every 3-4 days depending on the concentration of cells. The cells were incubated in 0.5 mM EDTA, at room temperature for 2 min, and then were re-suspended and split up and down with E8 medium, and transferred to a culture dish that had been coated with Vitronectin one hour before.
During differentiation, spin-embryoid body (spin-EB) method was used (Ng E S, Davis R, Stanley E G, Elefanty A G, A protocol describing the use of a recombinant protein-based, animal product-free medium (APEL) for human embryonic stem cell differentiation as spin embryoid bodies, Nat Protoc. 2008; 3(5): 768-76.). At Day 0 (D0) after differentiation, iPSCs reached a confluence of above 85% (confluence refers to the percentage of the surface of a culture dish that is covered by adherent cells). After digestion with Accutase at 37° C. for 3 min, the cells were neutralized and split in SFM medium (50% IMDM, 50% Ham's F12, and the added reagents and factors including: human albumin, monothioglycerol, Glutamax, Chemically Defined Lipid Concentrate, L-Ascorbic acid 2-phosphate sesquimagnesium salt hydrate, ITS-X), counted, and centrifuged. After the cells were re-suspended in SFM, cytokines, i.e. 10 μM ROCK inhibitor (Rho-associated protein kinase inhibitor), 10 ng/ml bFGF, and 10 ng/ml BMP4, were added. Cells were seeded to a round-bottom 96-well plate, at 3000 or 5000 cells/50 μl for each well (3000 or 5000 cells were seeded to each well, in a volume of 50 μl for each well). At Day 2, 50 μl SFM medium+10 ng/ml bFGF+10 ng/ml BMP4+100 ng/ml SCF+20 ng/ml VEGF was added to each well. At Day 5, Day 8, and Day 11, 50 μl SFM medium+10 ng/ml bFGF+10 ng/ml BMP4+50 ng/ml SCF+10 ng/ml VEGF was added to each well, wherein 100 μl old medium was pipetted off at Day 8, and 10 ng/ml thrombopoietin (TPO) was added to each well at Day 11.
At Day 14 (D14), single cells (suspending cells) surrounding embryoid bodies (EBs) were collected. The cells were used in the following flow cytometry.
The cell surface markers (CD34, CD45, CD41, CD42) of the collected cells were detected by flow cytometer. The assay was as followed.
The detection was carried out in four tubes: the first tube was a negative tube that was not labeled with any flow antibody; the second tube was labelled with two antibodies CD34-APC and CD45-PE; the third tube was labeled with CD34-APC and CD41-PE; and the fourth tube was labeled with CD41-PE and CD42-APC, wherein CD34^+CD45^+represented the population of hematopoietic stem/progenitor cells (HSPCs), CD34^+CD41^+ represented the population of megakaryocyte progenitor cells (MKPs), and CD41^+CD42^+ represented the population of mature megakaryocytes (MKs).
(1) The BC1 cell line used was the same as the one used in Example 1, and was divided into three groups, wherein two 96-well plates were used for each group, and the cells were seeded at 5000 cells/50 μl to each well. In vitro differentiation was carried out by reference to the steps in Example 1, wherein the step of adding a drug was carried out in accordance with the following steps in I-III groups:
I. At Day 0 after differentiation, 10 μM RO4929097 was added, and DMSO was added to the control well.
III. At Day 2 after differentiation, 10 μM RO4929097, 10 μM L-685458, and 10 μM DAPT were added, respectively; in addition, at Day 5 after differentiation, 10 μM RO4929097, 10 μM L-685458, and 10 μM DAPT were added, respectively.
(2) The cells were collected for flow cytometry analysis, and as to the steps, please refer to the Example 1 above. […]
I. At Day 0 after differentiation, 10 μM RO4929097, and 10 μM DAPT were added, respectively.
II. At Day 2 after differentiation, 10 μM RO4929097, and 10 μM DAPT were added, respectively.
III. At Day 5 after differentiation, 10 μM RO4929097, and 10 μM DAPT were added, respectively.
IV. […]

[2] = test system: iPSCs-derived CD34+ cells; assay: proplatelet formation, iPSC-derived CD34+ cells; type: cell-based, human; settings: 10 μM; DMSO about 47%; FIG. 19D
Method: iPSC-derived CD34^+ cells (prepared by the method as described in Example 3-2) and umbilical cord blood-derived CD34^+ cells were seeded at 1*10^6 cells per well to 4 ml StemSpan™ SFEM 11+50 ng/ml SCF+50 ng/ml TPO+50 ng/ml IL-6+20 ng/ml IL-3, in a 12-well plate, with 1 ml medium for each well, and 3 wells in total for each cell line, to which 10 μM RO4929097, 10 μM DAPT, and the same volume of DMSO as control, were added, respectively, and the time was recorded as Day 0. The liquid was changed every 3 days, and the culture condition was 37° C., 5% CO2. After iPSC-derived CD34^+ cells were incubated for 6 days, and umbilical cord blood-derived CD34^+ cells were incubated for 9 days, the following experiment was carried out.
Proplatelet formation of MKs referred to mature megakaryocytes, which extended long and branched filaments and cytoplasmic protrusions.

[3] = 10 μM at Day 5 after in vitro differentiation, found by comparison

SMILES | decrease of proportion of HSPCs (CD34+CD45+) vs DMSO control ([1]; 10 μM added at Day 2) | proportion of MKPs (CD34+CD41+) produced, increased fold vs DMSO control (set as 1) ([1]; 10 μM added at Day 2) | proportion of mature megakaryocytes MKs (CD41+CD42+) produced, increased fold vs DMSO control (set as 1) ([1]; 10 μM added at Day 2) | number of MKPs (CD34+CD41+) produced, increase vs DMSO control ([1]; 10 μM added at Day 2, FIG. 9) | number of mature megakaryocytes MKs (CD41+CD42+) produced, increase vs DMSO control ([1]; 10 μM added at Day 2, FIG. 9) | proportion of mature megakaryocytes MKs produced, increased fold vs DMSO control (set as 1) ([1]; 10 μM added at Day 5, FIG. 7B) | total number of hematopoietic cells, increase vs control group ([1]; 10 μM added at Day 5, FIG. 7B) | number of HSPCs (CD34+CD45+), increase vs DMSO control ([1]; 10 μM added at Day 5, FIG. 10) | number of MKPs (CD34+CD41+) produced, increase vs DMSO control ([1]; 10 μM added at Day 5, FIG. 10) | number of mature megakaryocytes MKs (CD41+CD42+) produced, increase vs DMSO control ([1]; 10 μM added at Day 5, FIG. 10) | number of MKPs (CD34+CD41+) produced, increase vs DMSO control ([1]; 10 μM added at Day 8, FIG. 12) | number of mature megakaryocytes MKs (CD41+CD42+) produced, increase vs DMSO control ([1]; 10 μM added at Day 8, FIG. 12) | number of mature megakaryocytes MKs (CD41+CD42+) produced, increase vs DMSO control ([1]; 10 μM added at Day 11, FIG. 13) | production of megakaryocyte progenitor cells and/or mature megakaryocytes in vitro [1] | proportion of proplatelet-bearing MKs in 100 differentiated cells [2] | further results
C[C@H](NC(=O)Cc1cc(F)cc(F)c1)C(=O)N[C@H](C(=O)OC(C)(C)C)c1ccccc1 [DAPT] | 35% | about 1.5 folds | about 2.4 folds | 2.5 folds | 4.3 folds | about 4.1 folds | 2.8 folds | 2.8 folds | about 6.5 folds | about 6.7 folds | 1.5 folds | 1.5 folds | 1.3 folds | significantly promote | ~50% | proportion of HSPCs produced, increased fold vs DMSO control (set as 1) ([1]; 10 μM added at Day 5, FIG. 7B): about 1.5 folds; proportion of MKPs produced, increased fold vs DMSO control (set as 1) ([1]; 10 μM added at Day 5, FIG. 7B): about 1.5 folds; promotion of the production of mature megakaryocytes [1, 3]: ~12 folds; promotion of the production of megakaryocyte progenitor cells [1, 3]: 4 folds
CC(C)(C(=O)NCC(F)(F)C(F)(F)F)C(=O)N[C@@H]1C(=O)Nc2ccccc2-c2ccccc21 [RO4929097] | 40% | about 1.4 folds | about 2.5 folds | 2.5 folds | 4.3 folds | about 2.6 folds | did not change | 2.8 folds | about 6.5 folds | about 6.7 folds | 1.5 folds | 1.5 folds | 1.3 folds | significantly promote | about 46% | proportion of HSPCs (CD34+CD45+) ([1]; 10 μM added at Day 0, FIG. 5): ~0%; proportion of MKPs (CD34+CD41+) ([1]; 10 μM added at Day 0, FIG. 5): ~0%; proportion of MKs (CD41+CD42+) ([1]; 10 μM added at Day 0, FIG. 5): ~0%; formation of hematopoietic embryoid body (EB) ([1]; 10 μM added at Day 0 after differentiation): no hematopoietic embryoid body EB was formed; also recorded: no hematopoietic embryoid body (EB) could be formed; increase of proportion of mature megakaryocytes MKs (CD41+CD42+) produced vs DMSO control ([1]; 10 μM added at Day 2, FIG. 6): 64%; increase of proportion of megakaryocyte progenitor cells MKPs (CD34+CD41+) produced vs DMSO control ([1]; 10 μM added at Day 2, FIG. 6): 67%; decrease of proportion of HSPCs vs DMSO control ([1]; 10 μM added at Day 5, FIG. 7B): 11%; effect on promoting the production of MKPs and MKs ([1]; 15 μM added at Day 2, FIG. 6, not as significant as 10 μM): a certain effect on promoting the production of MKPs and MKs
